Test results reported in US4921958A, “Piperazinylalkylcarboxylic acid adamantylamides” (American Home Products Corporation, priority 1989, dated 1990).
Where two headings read alike, the source gives them in different places.

What was measured:
[1] = molecular target: T1, 5-HT1A serotonin receptor subtype (Rattus norvegicus, UniProt P19327); experiment: Displacement of 3H-8-OH DPAT from the 5-HT1A serotonin receptor subtype (Hall et al.); assay type: binding; conditions: for Ki: calculated from appropriate IC50 values, 3H-8-OH DPAT, read-out: Ki (Affinity for 5-HT1A Receptor Sites); for inhibition at 1 µM: 1 μM test compound, read-out: % Inhibition at 1 μM (Affinity for 5-HT1A Receptor Sites)
T1 construct: from tissue
T1 sequence (P19327 1-422): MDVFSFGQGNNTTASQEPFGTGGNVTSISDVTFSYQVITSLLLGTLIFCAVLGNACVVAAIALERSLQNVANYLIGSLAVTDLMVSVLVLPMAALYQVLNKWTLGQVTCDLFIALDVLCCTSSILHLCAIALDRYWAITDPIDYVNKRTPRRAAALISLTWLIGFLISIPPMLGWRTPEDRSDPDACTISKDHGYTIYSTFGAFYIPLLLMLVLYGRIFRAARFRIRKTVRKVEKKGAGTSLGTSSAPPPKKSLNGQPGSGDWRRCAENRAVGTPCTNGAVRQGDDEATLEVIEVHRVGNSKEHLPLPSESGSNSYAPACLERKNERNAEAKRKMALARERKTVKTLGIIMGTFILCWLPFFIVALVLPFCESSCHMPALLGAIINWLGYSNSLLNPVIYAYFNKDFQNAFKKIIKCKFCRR
Description: The serotoninergic properties of the compounds of this invention were established by the procedure of Hall et al., J. Neurochem.

[2] = in words, Barone et al., 1986; cited from earlier work
[3] = molecular target: T2, limbic D2 (dopamine) receptor (Rattus norvegicus, UniProt P61169); experiment: Inhibition of 3H-spiroperidol binding to limbic brain tissue (D2 receptor affinity; modified Fields et al. and Yamamura et al.); conditions: 1 μM test compound
T2 construct: from tissue; host or cells: limbic brain tissue
Description: The compounds of this invention are antidepressant, anxiolytic agents useful in the treatment of depression and/or anxiety as a singular, primary mental problem as well as secondary, attending problems such as sexual dysfunction. […] The D2 receptor affinity of the compounds of this invention was determined by a modification of the test procedure of Fields et al., Brain Res. 136, 578 (1977) and Yamamura et. al., eds., Neurotransmitter Receptor Binding, Raven Press, N.Y. (1978) as discussed in U.S. No. 4,636,563. The percentage reduction of ^3 H-spiroperidol binding at 1 μM concentration of test compound is reported, infra.

[4] = 3H-spiroperidol, read-out: % Inhibition at 1 μM (Affinity for D2 Receptor Sites)

T2 sequence (P61169 whole entry): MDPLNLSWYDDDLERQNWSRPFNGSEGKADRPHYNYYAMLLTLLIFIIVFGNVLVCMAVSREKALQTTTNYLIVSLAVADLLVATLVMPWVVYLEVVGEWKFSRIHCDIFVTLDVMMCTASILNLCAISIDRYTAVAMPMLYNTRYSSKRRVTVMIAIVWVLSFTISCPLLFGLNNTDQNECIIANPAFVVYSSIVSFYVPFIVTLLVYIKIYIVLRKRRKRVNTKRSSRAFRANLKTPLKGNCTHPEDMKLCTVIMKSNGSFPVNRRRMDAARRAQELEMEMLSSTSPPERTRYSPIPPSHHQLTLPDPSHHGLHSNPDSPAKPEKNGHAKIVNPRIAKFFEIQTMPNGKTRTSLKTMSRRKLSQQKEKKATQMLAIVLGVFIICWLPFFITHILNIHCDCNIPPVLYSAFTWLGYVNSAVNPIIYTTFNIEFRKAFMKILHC

Ki [1] [nM] | inhibition at 1 µM ([1]; displacement of 3H-8-OH DPAT) [%] | inhibition at 1 µM [3, 4] [%] | inhibition at 0.1 µM ([1]; 100 nM test compound, displacement of 3H-8-OH DPAT, read-out: % Inhibition at 100 nM (Affinity for 5-HT1A Receptor Sites)) [%] | inhibition at 1 µM ([3]; limbic brain tissue, read-out: inhibition of 3H-spiroperidol binding to limbic brain tissue) [%] | Structure (SMILES) | clinical efficacy as anxiolytic-antidepressant agents [2]
83 |  |  |  |  | COc1ccccc1N1CCN(CC(C(=O)NC23CC4CC(CC(C4)C2)C3)c2ccccc2)CC1 (stereo not shown) [Example 3, N-(1-Tricyclo[3.3.1.1(3,7)]decyl)-3-[1-[4-(2-methoxyphenyl)piperazinyl]]-2-phenylpropanamide] | 
 |  |  |  |  | Cc1nc2sccn2c(=O)c1CCN1CCC(=C(c2ccc(F)cc2)c2ccc(F)cc2)CC1 [Ritanserin] | demonstrate clinical efficacy
130 | 79 | 14 |  |  | O=C(CCN1CCN(c2ncccn2)CC1)NC12CC3CC(CC(C3)C1)C2 [Example 1, 4-(2-pyrimidyl)-N-tricyclo[3.3.1.1(3.7)]dec-1-yl-1-piperazinepropanamide] | 
9 | 100 | 74 | 86 | 74 | COc1ccccc1N1CCN(CCC(=O)NC23CC4CC(CC(C4)C2)C3)CC1 [Example 2, 4-(2-methoxyphenyl)-N-tricyclo[3.3.1.1(3,7)]dec-1-yl-1-piperazinepropanamide] | 
